Test results from US9296741B2, “Bromodomain inhibitors” (priority 2012, dated 2016).

How the values were obtained:
[1] = tested on: breast cancer cell line MX-1; assay: MX-1 cell line proliferation assay; format: cell-based, human; conditions: Homo sapiens, MX1, 72 h; MX-1 cells, 3-day proliferation, Cell Titer Glo; read-out: Cellular proliferation: EC50
[2] = Mouse liver microsome stability assay; format: in vitro ADME; conditions: male, CD1, mouse, microsomes, pH 7.4
[3] = target: human BRD4 first bromodomain (BDI_K57-E168) (Homo sapiens (Human), UniProt O60885); assay: TR-FRET bromodomain binding assay, BRD4 first bromodomain
[4] = Rat liver microsome stability assay; format: in vitro ADME; conditions: rat liver microsomes (male Sprague-Dawley), 0.5 μM test compound, 0.25 mg/mL microsomal protein, pH 7.4, 37° C.; read-out: Stability in rat liver microsomes (t1/2 in minutes)
[5] = target: human BRD4 second bromodomain (BDII_E352-M457) (Homo sapiens (Human), UniProt O60885); assay: TR-FRET bromodomain binding assay, BRD4 second bromodomain
[6] = Human liver microsome stability assay; format: in vitro ADME; conditions: both sexes, human, microsomes, pH 7.4

SMILES | EC50 [1] [nM] | half-life at 0.5 μM [2] [min] | Ki [3] [nM] | half-life at 0.5 μM [4] [min] | Ki [5] [nM] | half-life at 0.5 μM [6] [min]
Cn1cc(-c2cc(S(C)(=O)=O)ccc2Oc2ccc(F)cc2F)c2cc(CNc3ccccc3)[nH]c2c1=O [Example 282, 4-[2-(2,4-difluorophenoxy)-5-(methylsulfonyl)phenyl]-6-methyl-2-[(phenylamino)methyl]-1,6-dihydro-7H-pyrrolo[2,3-c]pyridin-7-one] | 204 | 7 | 17.3 | 21 | 72.3 | 9
Cn1cc(-c2cc(-c3cccc(C#N)c3)ccc2OCC2CC2)c2cc[nH]c2c1=O [Example 353, 4′-(cyclopropylmethoxy)-3′-(6-methyl-7-oxo-6,7-dihydro-1H-pyrrolo[2,3-c]pyridin-4-yl)biphenyl-3-carbonitrile] | 786 | 10 | 158 | 8 | 256 | 40
CCS(=O)(=O)C(C)(C)c1ccc(Oc2ccc(F)cc2F)c(-c2cn(C)c(=O)c3[nH]ccc23)c1 [Example 298, 4-{2-(2,4-difluorophenoxy)-5-[2-(ethylsulfonyl)propan-2-yl]phenyl}-6-methyl-1,6-dihydro-7H-pyrrolo[2,3-c]pyridin-7-one] | 6.1 | 3 | 2.9 | 47 | 3.1 | 9
CNS(=O)(=O)Nc1ccc(OC2CCCOC2)c(-c2cn(C)c(=O)c3[nH]ccc23)c1 (stereo not drawn) [Example 108, N-methyl-N′-[3-(6-methyl-7-oxo-6,7-dihydro-1H-pyrrolo[2,3-c]pyridin-4-yl)-4-(tetrahydro-2H-pyran-3-yloxy)phenyl]sulfuric diamide] | 38 | 13 | 1.4 | 33 | 5.3 | 37
CN1CCN(C(=O)c2cc3c(-c4cc(S(C)(=O)=O)ccc4Oc4ccc(F)cc4F)cn(C)c(=O)c3[nH]2)CC1 [Example 256, 4-[2-(2,4-difluorophenoxy)-5-(methylsulfonyl)phenyl]-6-methyl-2-[(4-methylpiperazin-1-yl)carbonyl]-1,6-dihydro-7H-pyrrolo[2,3-c]pyridin-7-one] | 405 | 71 | 6.1 | 58 | 84 | 58
CCS(=O)(=O)Nc1ccc(Oc2ccc(F)cc2F)c(-c2cn(C)c(=O)c3[nH]c(C(=O)N4CCN(C)CC4)cc23)c1 [Example 338, N-[4-(2,4-difluorophenoxy)-3-{6-methyl-2-[(4-methylpiperazin-1-yl)carbonyl]-7-oxo-6,7-dihydro-1H-pyrrolo[2,3-c]pyridin-4-yl}phenyl]ethanesulfonamide] | 77.9 | 20 | 0.86 | 29 | 12.7 | 39
Cn1cc(-c2cc(S(C)(=O)=O)ccc2OCC2C[C@@H]3CC[C@H]2C3)c2cc[nH]c2c1=O (stereo partly drawn) [Example 230, 4-{2-[(1S,4R)-bicyclo[2.2.1]hept-2-ylmethoxy]-5-(methylsulfonyl)phenyl}-6-methyl-1,6-dihydro-7H-pyrrolo[2,3-c]pyridin-7-one] | 23.6 | 7 | 2.6 | 8 | 1.5 | 6
Cn1cc(-c2cc(S(C)(=O)=O)ccc2Oc2cccc(C#N)c2)c2cc[nH]c2c1=O [Example 155, 3-[2-(6-methyl-7-oxo-6,7-dihydro-1H-pyrrolo[2,3-c]pyridin-4-yl)-4-(methylsulfonyl)phenoxy]benzonitrile] | 117 | 25 | 19.3 | > 120 | 14.8 | > 120
Cn1cc(-c2cc(C(=O)O)ccc2Oc2ccccc2)c2cc[nH]c2c1=O [Example 10, 3-(6-methyl-7-oxo-6,7-dihydro-1H-pyrrolo[2,3-c]pyridin-4-yl)-4-phenoxybenzoic acid] | > 3000 | > 120 | 15.4 | > 120 | 8.6 | 78
CCS(=O)(=O)Nc1ccc(Oc2ccc(F)cc2F)c(-c2cn(C)c(=O)c3[nH]cc(C=O)c23)c1 [Example 349, N-[4-(2,4-difluorophenoxy)-3-(3-formyl-6-methyl-7-oxo-6,7-dihydro-1H-pyrrolo[2,3-c]pyridin-4-yl)phenyl]ethanesulfonamide] | 32.1 | 36 | 6.6 | 39 | 3.1 | > 120
Cn1cc(-c2cc(S(C)(=O)=O)ccc2OC2CCC2)c2cc[nH]c2c1=O [Example 213, 4-[2-(cyclobutyloxy)-5-(methylsulfonyl)phenyl]-6-methyl-1,6-dihydro-7H-pyrrolo[2,3-c]pyridin-7-one] | 28.7 | 89 | 3.2 | 38 | 4.8 | 79
CCS(=O)(=O)N(CC1CCCO1)c1ccc(Oc2ccc(F)cc2F)c(-c2cn(C)c(=O)c3[nH]ccc23)c1 (stereo not drawn) [Example 345, N-[4-(2,4-difluorophenoxy)-3-(6-methyl-7-oxo-6,7-dihydro-1H-pyrrolo[2,3-c]pyridin-4-yl)phenyl]-N-(tetrahydrofuran-2-ylmethyl)ethanesulfonamide] | 479 | 2 | 129 | 4 | 32.6 | 2
Cn1nc(-c2cc(N)ccc2Oc2ccc(F)cc2F)c2cc[nH]c2c1=O [Example 148, 4-[5-amino-2-(2,4-difluorophenoxy)phenyl]-6-methyl-1,6-dihydro-7H-pyrrolo[2,3-d]pyridazin-7-one] | 740 | 6 | 205 | 2 | 152 | 58
Cc1ccc(Oc2ccc(S(C)(=O)=O)cc2-c2cn(C)c(=O)c3[nH]ccc23)cc1 [Example 177, 6-methyl-4-[2-(4-methylphenoxy)-5-(methylsulfonyl)phenyl]-1,6-dihydro-7H-pyrrolo[2,3-c]pyridin-7-one] | 53.5 | 18 | 11.3 | 6 | 4.4 | 16
CN1CCN(Cc2cc3c(-c4cc(S(C)(=O)=O)ccc4Oc4ccc(F)cc4F)cn(C)c(=O)c3[nH]2)CC1 [Example 281, 4-[2-(2,4-difluorophenoxy)-5-(methylsulfonyl)phenyl]-6-methyl-2-[(4-methylpiperazin-1-yl)methyl]-1,6-dihydro-7H-pyrrolo[2,3-c]pyridin-7-one] | 191 | 116 | 1.8 | 119 | 108 | 25
Cn1cc(-c2cc(NS(C)(=O)=O)ccc2Oc2ccccc2)c2cc(C(=O)O)[nH]c2c1=O [Example 70, 6-methyl-4-{5-[(methylsulfonyl)amino]-2-phenoxyphenyl}-7-oxo-6,7-dihydro-1H-pyrrolo[2,3-c]pyridine-2-carboxylic acid] | > 3000 | 68 | 11.8 | 9 | 46.8 | 41
Cn1cc(-c2cc(S(C)(=O)=O)ccc2OCC2(F)COC2)c2cc[nH]c2c1=O [Example 206, 4-{2-[(3-fluorooxetan-3-yl)methoxy]-5-(methylsulfonyl)phenyl}-6-methyl-1,6-dihydro-7H-pyrrolo[2,3-c]pyridin-7-one] | 77.7 | 95 | 11.6 | 118 | 22.8 | > 120
Cn1cc(-c2cc(S(N)(=O)=O)cnc2NCC2CC2)c2cc[nH]c2c1=O [Example 209, 6-[(cyclopropylmethyl)amino]-5-(6-methyl-7-oxo-6,7-dihydro-1H-pyrrolo[2,3-c]pyridin-4-yl)pyridine-3-sulfonamide] | 36.8 | 116 | 4.6 | 105 | 3.6 | > 120
Cn1cc(-c2cc(S(C)(=O)=O)ccc2Oc2ccc(F)cc2F)c2cc(CN3CCOCC3)[nH]c2c1=O [Example 280, 4-[2-(2,4-difluorophenoxy)-5-(methylsulfonyl)phenyl]-6-methyl-2-(morpholin-4-ylmethyl)-1,6-dihydro-7H-pyrrolo[2,3-c]pyridin-7-one] | 292 | 36 | 19.2 | 84 | 92 | 17
Cn1cc(-c2cc(C(=O)NCC(C)(C)O)ccc2Oc2ccc(F)cc2F)c2cc[nH]c2c1=O [Example 123, 4-(2,4-difluorophenoxy)-N-(2-hydroxy-2-methylpropyl)-3-(6-methyl-7-oxo-6,7-dihydro-1H-pyrrolo[2,3-c]pyridin-4-yl)benzamide] | 118 | 45 | 27.1 | > 120 | 36.1 | > 120
Cn1cc(-c2cc(NS(C)(=O)=O)ccc2OCc2ccccc2)c2cc[nH]c2c1=O [Example 63, N-[4-(benzyloxy)-3-(6-methyl-7-oxo-6,7-dihydro-1H-pyrrolo[2,3-c]pyridin-4-yl)phenyl]methanesulfonamide] | 105 | 18 | 18 | 13 | 42.7 | 39
